Results published in patent US8877765B2, “Highly soluble pyrimido-dione-quinoline compounds and their use in the treatment of cancer” (The United States of America as represented by the …, priority 2006, dated 2014).
Where a SMILES comes first, the peptide text is derived from it. [ ]: non-standard residue; d: D form. Nle = CCCC[C@H](N)C(=O)O

What was measured:
[1] = test system: Hdm2 and p53; assay: Accumulation of Hdm2 and p53 in non-transformed RPE cells (immunoblot); format: cell-based, human; settings: 8 hours, 5 μM or 10 μM solution in PBS, or 5 μm solution in DMSO, FIG. 1
Procedure: Human retina pigment epithelial (RPE) cells were cultured with HyQ DME/F (HyClone) supplemented with 10% FCS and 2.5% Sodium Bicarbonate. They were harvested with Trpsin-EDTA and seeded into a 12-well tissue culture cluster and incubated for 18-40 hours to reach 80% confluent. Following treatment with indicated compounds for 8 hours, the cells were harvested and lysed with RIPA buffer. Following removal of insoluble pellet by centrifugation for 20 minutes at 10000 rpm, the lysate was separated on a 4-20% gradient SDS-polyacrylamide gel and transferred onto nitrocellulose membrane. The membrane was then blotted with anti-p53 antibody (DO-1) anti-Hdm2 antibodies (Ab-1 and Ab-2). After extensive washing with PBS containing 0.5% Triton x-100, it was incubated with HRP-conjugated donkey anti-mouse antibody and visualized using enhanced chemiluminescence.

[2] = test system: p53; assay: p53 response element-driven luciferase reporter in U2OS cells; format: cell-based; settings: 18 hours, FIG. 3
Procedure: U2OS cells stably transfected with a p53 response element-driven luciferase were treated with indicated concentration of compounds for 18 hours. The cells were then harvested and lysed to measure luciferase activity using the luciferase assay system (Promega) according to manufacturer's instruction.

[3] = test system: tumor cells expressing wild type p53; assay: Apoptosis-inducing activity in tumor cell lines that do or do not express p53; format: cell-based; settings: pair of cell lines that either do or do not express p53; FIG. 7
[4] = Additional experiments on DNA damage (data not shown)
[5] = target: gp78 (AMFR) (Homo sapiens, UniProt Q9UKV5); assay: E3 specificity: level of transfected gp78 in MEFs expressing neither Mdm2 nor p53; settings: immunoblotting, FIG. 5
Text: (§1) Following treatment with ALLN, 1, 2 (10-(4-methyl-phenyl)-7-nitro-10H-pyrimido[4,5-b]quinoline-2,4-dione), 3 (10-(4-chloro-phenyl)-7-nitro-10H-pyrimido[4,5-b]quinoline-2,4-dione), and 4 (10-(3-chloro-phenyl)-7-nitro-10H-pyrimido[4,5-b]quinoline-2,4-dione), levels of the E3s were examined by immunoblotting with specific antibodies.

[6] = target: T1, Hdm2 (Homo sapiens, UniProt Q00987); settings: U2OS cells; FIG. 6
[7] = test system: AO7 (RNF25); assay: E3 specificity: level of transfected AO7 in MEFs expressing neither Mdm2 nor p53; settings: immunoblotting, FIG. 5
Text: as §1

[8] = target: T1, Hdm2; assay: E3 specificity: level of transfected Hdm2 in MEFs expressing neither Mdm2 nor p53; settings: immunoblotting, FIG. 5
Text: as §1

T1 sequence (Q00987 whole entry): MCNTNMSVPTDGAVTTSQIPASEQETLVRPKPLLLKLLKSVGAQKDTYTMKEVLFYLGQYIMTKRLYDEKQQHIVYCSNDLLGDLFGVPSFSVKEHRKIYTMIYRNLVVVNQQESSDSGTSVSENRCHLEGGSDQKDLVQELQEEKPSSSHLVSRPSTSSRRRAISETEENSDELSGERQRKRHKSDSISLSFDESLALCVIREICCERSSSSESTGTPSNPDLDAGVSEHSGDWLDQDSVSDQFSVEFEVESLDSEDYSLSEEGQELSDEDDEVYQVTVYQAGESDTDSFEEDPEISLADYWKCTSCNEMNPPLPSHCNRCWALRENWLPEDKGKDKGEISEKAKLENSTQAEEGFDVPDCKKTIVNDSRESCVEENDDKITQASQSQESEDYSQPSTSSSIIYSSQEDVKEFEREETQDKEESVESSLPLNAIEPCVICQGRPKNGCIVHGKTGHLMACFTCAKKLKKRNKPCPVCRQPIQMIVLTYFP
Chain of gp78 (AMFR) (Q9UKV5 whole entry, species assumed): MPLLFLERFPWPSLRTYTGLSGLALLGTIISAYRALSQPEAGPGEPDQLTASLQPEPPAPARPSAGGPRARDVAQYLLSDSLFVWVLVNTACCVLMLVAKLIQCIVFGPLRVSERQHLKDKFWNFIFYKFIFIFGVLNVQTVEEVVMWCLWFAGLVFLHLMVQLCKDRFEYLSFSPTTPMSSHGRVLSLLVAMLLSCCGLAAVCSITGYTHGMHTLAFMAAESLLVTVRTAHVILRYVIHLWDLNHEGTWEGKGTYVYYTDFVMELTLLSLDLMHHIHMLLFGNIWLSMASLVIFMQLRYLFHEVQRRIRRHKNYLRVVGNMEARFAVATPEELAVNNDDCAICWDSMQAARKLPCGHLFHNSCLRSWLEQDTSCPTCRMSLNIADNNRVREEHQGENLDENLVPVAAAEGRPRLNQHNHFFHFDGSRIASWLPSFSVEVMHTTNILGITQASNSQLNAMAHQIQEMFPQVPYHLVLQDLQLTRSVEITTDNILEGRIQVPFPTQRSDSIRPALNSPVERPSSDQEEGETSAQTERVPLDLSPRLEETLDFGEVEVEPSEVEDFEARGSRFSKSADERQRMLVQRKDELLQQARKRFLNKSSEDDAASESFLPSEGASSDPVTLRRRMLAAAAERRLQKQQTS

Compound | accumulation of both Hdm2 and p53 [1] | capacity to activate a p53 reporter (luciferase activity) [2] | p53 reporter activity compared with proteosome inhibitor and Adriamycin ([2]; concentration of 10 μM) | killing of tumor cells by p53 status [3] | functioning by inducing DNA damage [4] | level of gp78 [5] | accumulation of ubiquitylated p53 [6] | degradation / stabilization of p53 and Hdm2 [6] | level of AO7 [7] | level of Hdm2 [8]
CN(C)CCCNc1c2c(=O)n(C)c(=O)nc-2n(C)c2ccccc12 [Compound 1, 5-(3-Dimethylamino-propylamino)-3,10-dimethyl-10H-pyrimido[4,5-b]quinoline-2,4-dione] | significant accumulation of both Hdm2 and p53 | high capacity to activate a p53 reporter | much greater than proteosome inhibitor and Adriamycin | preferential killing of tumor cells expressing wild type p53 | ruled out | little effects |  |  |  | 
CCCC[C@@H](C=O)NC(=O)[C@H](CC(C)C)NC(=O)[C@H](CC(C)C)NC(C)=O [ALLN] (Ac-Leu-Leu-[Nle]-aldehyde) |  |  |  |  |  | higher levels | easily detectable | stabilized Hdm2 and p53 | higher levels | higher levels
